Laboratory results published in patent US7514567B2 (priority 2003, dated 2009).

Molecular target: α7 nAChR Subtype (Rattus norvegicus, UniProt Q05941)
Type: binding
Conditions: read-out: KD of radioligand from saturation curves

Sequence of α7 nAChR Subtype (Q05941 23-502 limits assumed): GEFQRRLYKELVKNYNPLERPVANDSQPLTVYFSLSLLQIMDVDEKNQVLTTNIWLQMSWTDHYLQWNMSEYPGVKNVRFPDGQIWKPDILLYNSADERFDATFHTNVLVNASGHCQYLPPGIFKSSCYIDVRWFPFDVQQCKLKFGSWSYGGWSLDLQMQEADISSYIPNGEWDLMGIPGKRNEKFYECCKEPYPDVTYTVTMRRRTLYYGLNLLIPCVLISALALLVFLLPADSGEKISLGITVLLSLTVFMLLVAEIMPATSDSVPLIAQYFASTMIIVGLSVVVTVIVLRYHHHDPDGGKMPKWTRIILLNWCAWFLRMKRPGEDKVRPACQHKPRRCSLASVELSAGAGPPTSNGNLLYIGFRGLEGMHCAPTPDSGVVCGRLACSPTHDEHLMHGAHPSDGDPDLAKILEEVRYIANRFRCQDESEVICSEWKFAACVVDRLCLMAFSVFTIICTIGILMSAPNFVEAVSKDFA

Work on [^125I]-α-Bungarotoxin [[^125I]-α-BTX] yielded a Kd of 1.67 nM.
